This note sets out measurements from PubChem BioAssay AID1159565 (GlaxoSmithKline (GSK), 2015).

Active and inactive are the calls of the source. No rule for the calls is given here. A value given as a limit tells only on which side of the number the result lay.

The assay deals with T. cruzi-infected H9C2 cardiomyocytes, high-content imaging. Description: anti-T. cruzi activity in infected cardiomyocytes – imaging, H9C2 host cardiomyocytes, host toxicity (AID 1159565).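 Also: infected cells incubated 72 h after plating.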
Setting [1] is: measured here: H9C2 host cell toxicity.
Setting [2] is: measured here: amastigotes per cell.

Turning to `CNC(=O)C1Cc2ccccc2N1C(=O)Cc1ccc(F)cc1` (stereo not given), the IC50 was > 50000 nM (inactive). Under setting [1], the IC50 was over 50000 nM. Besides, the IC50 under setting [2] was over 50000 nM.
For the compound `O=C(NCCCn1cnc2ccccc21)c1ccc(NC(=O)c2ccco2)cc1`, the IC50 is 2000 nM. Under setting [1], this compound displayed an IC50 of over 50000 nM. Moreover, under setting [2], the IC50 stood at 1300 nM.
The matching figures for `Cc1nn(-c2nc(N)nc(-c3ccccn3)n2)c(N)c1-c1ccccc1`: 5000 nM, 13000 nM and 1300 nM.
Taken in the same sequence, the figures for `CC(=O)Nc1nc(-c2cc(C)ccc2C)c(C)s1` were 200 nM, over 50000 nM and 160 nM.
Taken in the same sequence, the figures for `Cc1cc2cc(CNc3ccc4c(c3)OCO4)c(=O)n(CCO)c2cc1C` were 250 nM, over 50000 nM and 200 nM.
For the compound `O=C(NNC(=O)c1ccccn1)c1ccc(-c2ccccc2)cc1`, the 50% inhibitory concentration (IC50) was 1600 nM. This compound also yielded an IC50 under setting [1] of 2000 nM. This compound also showed an IC50 under setting [2] of 1300 nM.
The matching figures for `CS(=O)(=O)N1CCC(Nc2ncc(Br)c(Nc3cccc(F)c3C(N)=O)n2)CC1`: 1000 nM, 160 nM and 400 nM.
For the compound `O=C(Cc1ccc2c(c1)CCC2)Nc1n[nH]c(-c2ccccn2)n1`, the IC50 was 10000 nM. Also, under setting [1], the IC50 is over 50000 nM. Besides, the IC50 under setting [2] is 10000 nM.
For `Cc1nc2c(-c3n[nH]c(-c4ccccc4N)n3)cccn2c1C`, the IC50 was 2500 nM. This compound gave an IC50 under setting [1] of 5000 nM. Under setting [2], this compound had an IC50 of 1600 nM.
Regarding `Cc1ccc2nc(N(Cc3cccnc3)C(=O)CCc3ccccc3)sc2c1`, the IC50 was 40 nM. This compound yielded an IC50 under setting [1] of over 50000 nM. Also, the IC50 under setting [2] came out at 32 nM.
Consider `Cc1sc(C)c(C(F)(F)F)c1CNCCCNc1cc(=O)c2ccccc2[nH]1`, for which the IC50 is 1000 nM. Moreover, under setting [1], the IC50 was over 50000 nM. The compound also came in with an IC50 under setting [2] of 500 nM.
As for `Cc1ccc2c(c1)-c1onc(C(=O)N3CCCCC3c3cccnc3)c1CO2` (stereo not given), the IC50 is 130 nM. This compound also registered an IC50 under setting [1] of over 50000 nM. This compound had an IC50 under setting [2] of 130 nM.
Turning to `O=c1[nH]c(NCCCNCc2cc(Br)cc(Br)c2)nc2ccsc12`, the IC50 was 630 nM. Moreover, under setting [1], the IC50 is 25000 nM. The compound also came in with an IC50 under setting [2] of 400 nM.
The matching figures for `COC(=O)c1ccc(-c2cnc3ccc(NCc4ccccn4)nn23)cc1`: 7900 nM, over 50000 nM and 5000 nM.
`O=C(NCCc1csc(-c2ccc(F)cc2)n1)c1cccs1`: the IC50 is 400 nM. The IC50 under setting [1] was over 50000 nM. For the same compound, the IC50 under setting [2] stood at 250 nM.
Taken in the same sequence, the figures for `Cc1cc(Oc2cc(Cl)c(Cl)cc2Cl)n2ncnc2n1` were 25000 nM, 7900 nM and 10000 nM.
For `COc1cc(NC(=O)Nc2cccc(CNC(=O)OC3CCCCC3)c2)ccc1-c1cnco1`, the IC50 was 25000 nM. Under setting [1], this compound came in with an IC50 of 16000 nM. The same compound gave an IC50 under setting [2] of 32000 nM.
The matching figures for `CCN(CC)S(=O)(=O)c1ccc(OC)c(NC(=O)c2ccc([N+](=O)[O-])s2)c1`: 160 nM, over 50000 nM and 130 nM.
As to `Cc1cc(Nc2cc(C3CC3)[nH]n2)nc(N2CCC[C@H]2C(N)=O)n1`, the IC50 was 63 nM. Moreover, the IC50 under setting [1] turned out to be 130 nM. This compound registered an IC50 under setting [2] of 20 nM.
Turning to `CCN(Cc1nc2ccc(C(=O)N3CCN(c4ncccn4)CC3)cc2[nH]1)C1CCCc2cccnc21` (stereo not given), the IC50 is 13000 nM. For the same compound, the IC50 under setting [1] is 16000 nM. In addition, under setting [2], the IC50 came to 2000 nM.
For `CC(C)(C)CC(=O)NCCc1csc(-c2ccc(F)cc2)n1`, the IC50 was 1000 nM. The same compound yielded an IC50 under setting [1] of over 50000 nM. Besides, the IC50 under setting [2] came out at 790 nM.
Consider `CCN(Cc1cccs1)C(=O)CSc1nnc(-c2ccc3c(c2)OCO3)o1`, for which the IC50 was 2500 nM. Besides, the IC50 under setting [1] is over 50000 nM. The IC50 under setting [2] came out at 1600 nM.
In the case of `Cc1ccc(CNC2CCN(C[C@@H]3Cn4c(=O)ccc5ccc(=O)n3c54)CC2)cc1F`, the IC50 is 1300 nM. This compound gave an IC50 under setting [1] of over 50000 nM. This compound displayed an IC50 under setting [2] of 1000 nM.
Take `CN(C(=O)Nc1ccc2c(c1)CCN(C1CCC1)CC2)c1ccc(C#N)cc1`: the IC50 was 4000 nM. The compound also gave an IC50 under setting [1] of over 50000 nM. Also, under setting [2], the IC50 came to 2000 nM.
As for `Cc1nn(-c2nc(N)nc(-c3ccccn3)n2)c(C)c1Cc1ccccc1`, the half-maximal inhibitory concentration (IC50) is 3200 nM. In addition, under setting [1], the IC50 amounted to 20000 nM. The compound also returned an IC50 under setting [2] of 2000 nM.
Taken in the same sequence, the figures for `O=C(Nc1nc(-c2ccc(S(=O)(=O)N3CCOCC3)cc2)cs1)c1ccc([N+](=O)[O-])cc1` were 1600 nM, over 50000 nM and 500 nM.
The matching figures for `COc1ccc2nccc(NC(=O)C3(OC)CCN(CC(O)c4ccc5c(c4)OCCO5)CC3)c2n1` (stereo not given): 320 nM, 16000 nM and 130 nM.
Taken in the same sequence, the figures for `COc1ccc([N+](=O)[O-])cc1NC(=O)Nc1cccc(Cl)c1` were 10000 nM, over 50000 nM and 400 nM.
For the compound `Cc1cn[nH]c1C1CCCN(Cc2nc3ccccc3n2C)C1` (stereo not given), the half-inhibitory concentration (IC50) is 20000 nM. Besides, the IC50 under setting [1] was over 50000 nM. For the same compound, under setting [2], the IC50 is 10000 nM.
Taken in the same sequence, the figures for `CC(=O)Nc1ccc(-c2cnc(N)c(-c3nc4ccc(F)cc4[nH]3)c2)cc1` were > 50000 nM (inactive), 790 nM and over 50000 nM.
The matching figures for `COc1cc(Nc2nccc(Nc3onc(C)c3C)n2)cc(S(=O)(=O)C2CCOCC2)c1`: 25000 nM, 10000 nM and 13000 nM.
In the case of `Cc1ccccc1CNC(=O)CN(Cc1ccccn1)Cc1ccccn1`, the IC50 is 16000 nM. In addition, the IC50 under setting [1] was over 79000 nM. This compound registered an IC50 under setting [2] of 6300 nM.
As for `CCC(CC)C(=O)Nc1cccc(C(=O)Nc2nnc(C3CCCCC3)s2)c1`, the IC50 is 25000 nM. The IC50 under setting [1] was over 50000 nM. Under setting [2], this compound yielded an IC50 of 16000 nM.
Take `N#Cc1cccc(Nc2nccc(N3CCC(NS(=O)(=O)c4cccc(C#N)c4)CC3)n2)c1`: the IC50 is 7900 nM. Besides, the IC50 under setting [1] is 32000 nM. The compound further had an IC50 under setting [2] of 3200 nM.
In the case of `CCOc1ccc(CC(=O)N2c3ccccc3CC2C(=O)NC)cc1` (stereo not given), the IC50 is > 50000 nM (inactive). This compound had an IC50 under setting [1] of over 50000 nM. The IC50 under setting [2] is over 50000 nM.
On to `Clc1cc(Br)ccc1OCCCCn1ccnc1`, for which the IC50 was 250 nM. Under setting [1], this compound gave an IC50 of 25000 nM. Under setting [2], this compound had an IC50 of 320 nM.
The matching figures for `O=C(c1cccc(Nc2ncc(-c3ccc4c(c3)OCO4)cn2)c1)N1CCOCC1`: 1300 nM, 6300 nM and 790 nM.
The matching figures for `Cc1ccc2ccc(C(Nc3ccccn3)c3cccnc3)c(O)c2n1` (stereo not given): 200 nM, 32000 nM and 200 nM.
The matching figures for `C[C@@H](Oc1cc(-n2cnc3ccc(C(O)CO)cc32)sc1C(N)=O)c1ccccc1C(F)(F)F` (stereo not given in full): 20000 nM, 630 nM and 16000 nM.
As to `CN(C)S(=O)(=O)c1ccc(Cl)c(C(=O)Nc2nc(-c3ccccn3)cs2)c1`, the IC50 was 2000 nM. Besides, the IC50 under setting [1] worked out at 6300 nM. The compound further showed an IC50 under setting [2] of 1300 nM.
The matching figures for `O=C(Nc1ccc(C(F)(F)F)cc1)NC1(C(=O)NCc2ccco2)CCCCC1`: > 50000 nM (inactive), over 50000 nM and over 50000 nM.
Taken in the same sequence, the figures for `CN(Cc1ccc(C(N)=O)cc1)C(c1ccc(F)cc1)c1cccnc1` (stereo not given) were 250 nM, over 50000 nM and 200 nM.
The matching figures for `N#Cc1ccc(S(=O)(=O)N2CCN(Cc3cccc(-c4ccncc4)c3)CC2)cc1`: 250 nM, 25000 nM and 200 nM.
In the case of `Cc1cc(N2CCc3ccccc3C2)nc(Nc2ccc(S(=O)(=O)N3CCOCC3)cc2)n1`, the IC50 is > 50000 nM (inactive). This compound also came in with an IC50 under setting [1] of over 50000 nM. This compound also yielded an IC50 under setting [2] of 25000 nM.
Take `COc1ccc(S(=O)(=O)Nc2ccc(C(=O)Nc3nc(-c4ccccn4)cs3)cc2)cc1`: the IC50 is 790 nM. In addition, under setting [1], the IC50 stood at 6300 nM. Besides, under setting [2], the IC50 stood at 630 nM.
As for `Cc1c(C(=O)NCCCCn2ccnc2)oc2c(C)cccc12`, the IC50 is 500 nM. Also, the IC50 under setting [1] was over 50000 nM. Moreover, the IC50 under setting [2] worked out at 500 nM.
On to `O=c1cc(CSc2ccc(Cl)cc2)nc(-c2ccccn2)[nH]1`, for which the half-maximal inhibitory concentration (IC50) is 1600 nM. This compound displayed an IC50 under setting [1] of 3200 nM. The compound further had an IC50 under setting [2] of 790 nM.
For the compound `CNc1cncc(C2CCCN2C(=O)Cc2ccc3ccccc3c2)n1` (stereo not given), the IC50 was 160 nM. The compound further showed an IC50 under setting [1] of over 50000 nM. Under setting [2], the IC50 was 160 nM.
Turning to `O=C(CSc1ccc(-c2ccccn2)nn1)Nc1ccc(Cl)cc1`, the IC50 was 2500 nM. This compound returned an IC50 under setting [1] of over 50000 nM. The IC50 under setting [2] came to 2000 nM.
As for `Cn1nc(-c2ccc(NC(=O)Cc3ccccc3Cl)cc2)c2c(N)ncnc21`, the IC50 is 1300 nM. The compound further returned an IC50 under setting [1] of 7900 nM. Further, under setting [2], the IC50 came out at 1000 nM.
Taken in the same sequence, the figures for `CNC(=O)C1Cc2ccccc2N1C(=O)COc1cccc(OC)c1` (stereo not given) were > 50000 nM (inactive), over 50000 nM and over 50000 nM.
`COc1cc(C2SCC(=O)Nc3c2c(C)nn3-c2nc3ccccc3s2)cc(OC)c1O` (stereo not given): the IC50 is > 50000 nM (inactive). This compound also showed an IC50 under setting [1] of over 50000 nM. The IC50 under setting [2] is over 50000 nM.
On to `CC(C)c1sc(Cl)nc1C(=O)NCCc1nc(C(=O)Nc2ccc3c(c2)OCO3)cs1`, for which the IC50 is 1000 nM. The same compound returned an IC50 under setting [1] of over 50000 nM. In addition, under setting [2], the IC50 is 630 nM.
As to `CN(C)S(=O)(=O)c1cccc(C(=O)Nc2nc(-c3ccccn3)cs2)c1`, the IC50 was 1600 nM. This compound also gave an IC50 under setting [1] of 7900 nM. Further, the IC50 under setting [2] was found to be 1000 nM.
With `O=C(Nc1ccc(Br)cn1)c1ccc(Cn2cnc([N+](=O)[O-])n2)cc1`, the IC50 was 130 nM. For the same compound, the IC50 under setting [1] was over 50000 nM. Under setting [2], this compound displayed an IC50 of 79 nM.
